We go through one molecule from patent publication US20240391889A1, “ANTIMICROBIAL COMPOUNDS AND THE METHODS OF USE” (priority 2021, published 2024).

One experiment relates to C. auris. As to the kind of experiment: MIC assay, C. auris. The format is cell-based, Candida auris.
Another experiment deals with C. parapsilosis. The format is cell-based, Candida parapsilosis.
The test system of another experiment is C. tropicalis. The format is cell-based, Candida tropicalis.
The subject of experiment [1] is Acinetobacter baumanii ATCC 19606. The format is cell-based, Acinetobacter baumannii. The following applies: ATCC 19606, 24 h. The text has this:
This screening led to the discovery of RMG9-11 (FIG. 2C). The minimum inhibitory concentration (MIC) of resynthesized RMG9-11 was initially determined against C. albicans, C. neoformans, and the ESKAPE bacteria via CSLI guidelines (CLSI. Methods for Dilution Antimicrobial Susceptibility Tests for Bacteria That Grow Aerobically, 11th Edition. Clinical and Laboratory Standards Institute (2018); CLSI. Reference method for broth dilution antifungal susceptibility testing of yeasts; approved standard-third edition; CLSI document M27-A3. Clinical and Laboratory Standards Institute (2008)). […]
The minimum inhibitory concentration (MIC) of peptoids against the ESKAPE bacteria (Enterococcus faecium ATCC 6569; Staphylococcus aureus ATCC 29213; Klebsiella pneumoniae ATCC 13883; Acinetobacter baumanii ATCC 19606; Pseudomonas aeruginosa ATCC 25619; Enterococcus faecalis ATCC 29212; and Escherichia coli ATCC 25922) was determined following CLSI guidelines (CLSI. Methods for Dilution Antimicrobial Susceptibility Tests for Bacteria That Grow Aerobically, 11th Edition. Clinical and Laboratory Standards Institute, 2018). The MIC against Mycobacterium smegmatis was also determined following CLSI guidelines (Woods, G. L. et al. Susceptibility Testing of Mycobacteria, Nocardiae, and Other Aerobic Actinomycetes, 2nd edition. (2011)). […]

The next experiment relates to C. albicans biofilm. As to the kind of experiment: Fungal biofilm minimum inhibitory concentration assay (PrestoBlue). The format is cell-based, Candida albicans. The protocol: The biofilm minimum inhibitory concentration (MIC) of peptoids against fungal pathogens C. albicans was determined following CLSI guidelines (CLSI. Reference method for broth dilution antifungal susceptibility testing of yeasts; approved standard-third edition; CLSI document M27 A3. Clinical and Laboratory Standards Institute, 2008). Colonies were transferred from a streaked YPD plate to 0.85% saline to reach an OD530 between 0.15 and 0.25. This inoculant was diluted 1:100 into RPMI-MOPS and then further diluted 1:20 into RPMI-MOPS. 200 μL of inoculant was seeded into each well of a 96 well black-walled plate. Plates were incubated overnight at 37° C. Media was gently removed and gently washed three times with PBS. RPMI-MOPS (198 μL) were added to each well. 2-fold serial dilutions of 100× peptoid solutions were prepared in water and 2 μL of peptoid were added to each well in triplicate then incubated at 37° C. for 24 hours. PRESTOBLUE (20 μL) was added to each well and incubated at 37° C. for one hour before measuring fluorescence on a SPECTRAMAX M5 plate reader (Ex. 555 nm; Em. 585 nm).

The next experiment concerns C. albicans M3. The format is cell-based, Candida albicans. The conditions noted are these: fluconazole resistant strain. The source says: (§1) This screening led to the discovery of RMG9-11 (FIG. 2C). The minimum inhibitory concentration (MIC) of resynthesized RMG9-11 was initially determined against C. albicans, C. neoformans, and the ESKAPE bacteria via CSLI guidelines (CLSI. Methods for Dilution Antimicrobial Susceptibility Tests for Bacteria That Grow Aerobically, 11th Edition. Clinical and Laboratory Standards Institute (2018); CLSI. Reference method for broth dilution antifungal susceptibility testing of yeasts; approved standard-third edition; CLSI document M27-A3. Clinical and Laboratory Standards Institute (2008)). […] C. albicans clinical isolates include a reference strain (M1), fluconazole susceptible strains (M4 and M6), and fluconazole resistant strains (M2, M3, M5, and M7). ATCC 64124 is multidrug resistant C. albicans strain that is resistant to amphotericin B, fluconazole, caspofungin, and flucytosine. All MICs were performed under CSLI guidelines in triplicate on at least three different days.
(§2) The minimum inhibitory concentration (MIC) of peptoids against fungal pathogens C. albicans and C. neoformans was determined following CLSI guidelines (Reference method for broth dilution antifungal susceptibility testing of yeasts; approved standard-third edition; CLSI document M27-A3.” CLSI. 2008.). Colonies were transferred from a streaked YPD plate to 0.85% saline to reach an OD530 between 0.18 and 0.25. This inoculant was diluted 1:100 into RPMI-MOPS and then further diluted 1:20 into RPMI-MOPS. 198 μL of inoculant was seeded into each well of a 96 well black-walled plate. 2-fold serial dilutions of 100× peptoid solutions were prepared in water and 2 μL of peptoid were added to each well in triplicate. […] MIC was defined as the lowest concentration of compound preventing fungal growth. This assay was repeated 3 times on separate days with each compound.

In a further experiment the test system is C. albicans M4. It is filed as cell-based, Candida albicans. The conditions noted are these: fluconazole susceptible strain.
Source text: as §1, §2

The subject of another experiment is C. albicans M1. The format is cell-based, Candida albicans. The conditions noted are these: reference strain.
Source text: as §1, §2

Another experiment has as its system C. albicans M6. The format is cell-based, Candida albicans. The following applies: fluconazole susceptible strain.
Source text: as §1, §2

The next experiment concerns C. albicans ATCC 64124. The format is cell-based, Candida albicans. The following applies: resistant to amphotericin B, fluconazole, caspofungin, flucytosine.
Source text: as §1, §2

The next experiment concerns C. albicans M2. It is filed as cell-based, Candida albicans. The following applies: fluconazole resistant strain.
Source text: as §1, §2

Experiment [2] concerns fluconazole resistant and susceptible strains of C. albicans. The format is cell-based, Candida albicans. The following applies: regardless of fluconazole susceptibility.
Source text: as §1, §2

The next experiment deals with C. albicans M7. It is filed as cell-based, Candida albicans. The following applies: fluconazole resistant strain.
Source text: as §1, §2

Another experiment concerns C. albicans M5. It is filed as cell-based, Candida albicans. The conditions noted are these: fluconazole resistant strain.
Source text: as §1, §2

Another experiment deals with C. albicans. It is filed as cell-based, Candida albicans. The following applies: planktonic, 24 h, RPMI-MOPS.
Source text: as §1, §2

The next experiment relates to C. neoformans. The format is cell-based, Cryptococcus neoformans.
Source text: as §1, §2

Each structure is given as a SMILES string. In brackets after ≈: the same amount, converted by molar mass. Numbered stars: 1 amine (or outer) side, 2 acyl side, 3 side chain; on linkers, the order of the positions; unused ones are H or OH. Square brackets hold non-standard residues; d marks the D form. Peptide text beside a SMILES is read from it. N(tridecyl)Gly = CCCCCCCCCCCCCNCC(=O)O; X1 = CC(c1ccccc1)N(CC(=O)[*:2])[*:1]; NFurfurylGly = O=C(O)CNCc1ccco1; Gly(N(CH2)3NH2) = NCCCNCC(=O)O; Nphe = O=C(O)CNCc1ccccc1; NPrGly = CCCNCC(=O)O; Nlys = NCCCCNCC(=O)O

As to `CCCCCCCCCCCCCNCC(=O)N(CCC)CC(=O)N(CC(=O)N(CCCCN)CC(=O)N(CC(=O)N(CC(=O)N(CCCN)CC(N)=O)Cc1ccccc1)Cc1ccco1)C(C)c1ccccc1` (stereo not drawn) [RMG9-11] (H-[N(tridecyl)Gly][NPrGly][X1][Nlys][NFurfurylGly][Nphe][Gly(N(CH2)3NH2)]-NH2), the “MIC C. auris” value in the experiment with C. auris turned out to be 12.5 µg/mL (≈ 12 µM). In the experiment with C. parapsilosis, the “MIC C. parapsilosis” value turned out to be 6.25 µg/mL (≈ 5.99 µM). In addition, in the experiment on C. tropicalis, the “MIC C. tropicalis” value turned out to be 3.13 µg/mL (≈ 3 µM). The “MIC A. baumannii” value in [1] worked out at 12.5 µg/mL (≈ 12 µM). Also, in the experiment with C. albicans biofilm (BMIC vs planktonic C. albicans MIC), the “increase of biofilm MIC compared to MIC” value was 16 fold. In the experiment on C. albicans biofilm (established biofilm, 24 h), the “MIC C. albicans biofilm (BMIC)” value stood at 100 µg/mL (≈ 95.8 µM). In addition, the “MIC C. albicans M3” value in the experiment with C. albicans M3 came to 12.5 µg/mL (≈ 12 µM). Also, in the experiment on C. albicans M4, the “MIC C. albicans M4” value came to 12.5 µg/mL (≈ 12 µM). The “MIC C. albicans M1” value with C. albicans M1 stood at 6.25 µg/mL (≈ 5.99 µM). Besides, in the experiment with C. albicans M6, the “MIC C. albicans M6” value was 6.25 µg/mL (≈ 5.99 µM). Besides, the “MIC C. albicans ATCC 64124” value against C. albicans ATCC 64124 was 6.25 µg/mL (≈ 5.99 µM). Further, the “MIC C. albicans M2” value with C. albicans M2 turned out to be 12.5 µg/mL (≈ 12 µM). Also, the “MICs against fluconazole resistant and susceptible strains of C. albicans” value in [2] was in the range of 6.25 to 12.5 µg/mL. Moreover, the “MIC C. albicans M7” value with C. albicans M7 amounted to 6.25 µg/mL (≈ 5.99 µM). In addition, the “MIC C. albicans M5” value with C. albicans M5 was 12.5 µg/mL (≈ 12 µM). Besides, the “MIC C. albicans” value with C. albicans is 6.25 µg/mL (≈ 5.99 µM). Besides, the “improvement of MIC C. neoformans vs C. albicans” value with C. neoformans is given as 2 fold. In addition, the “MIC C. neoformans” value against C. neoformans (72 h) is 3.13 µg/mL (≈ 3 µM).
